Source: patent US5306808A, “Peptide derivatives having vasodilating activity” (Takeda Chemical Industries, Ltd., priority 1991, dated 1994)
Where a SMILES comes first, the peptide text is derived from it. Bridges are numbered along the chain shown (N, C = ends). [ ]: non-standard residue; d: D form. Nva = CCC[C@H](N)C(=O)O; Abu = CC[C@H](N)C(=O)O

Legend:
[1] = system: endothelin receptor; assay: Assay of affinity for receptor (I125-ET-1 binding to porcine myocardial membrane fraction); conditions: ET-1 = 100
Procedure: A membrane fraction prepared from the porcine heart was diluted to 0.15 mg/ml by using a buffer solution [PBS (pH 7.4) containing 0.5 mM CaCl2, 1.0 mM MgCl2, 0.02% NaN3, 0.1% BSA (fraction V, Sigma), 0.1 mM PMSF and 0.1 μg/ml pepstatin (binding buffer)] for assay, and 100 μl of the resulting suspension of the membrane fraction was poured into each assay tube to use for assay. To this suspension of the membrane fraction were added 2 μl of an endothelin-1 solution labeled with 5 μM radioactive iodine. Further, 3 μl of a test peptide solution was added thereto, followed by maintenance at a temperature of 25° C. for 1 hour. Then, the resulting suspension was diluted with 900 μl of the buffer solution for assay cooled with ice, and thereafter separated into a supernatant and a precipitate by centrifugation at 12,000×g for 10 minutes. Cell membranes and an endothelin receptor embedded therein were contained in the precipitate, and radioactive iodine-labeled endothelin combined with the receptor was also recovered in the precipitate. Accordingly, the amount of radioactive iodine-labeled endothelin combined with the endothelin receptor was determined by measuring the amount of radioactive iodine contained in the precipitate with a gamma-ray counter. Compounds in which the affinity for the endothelin receptor is high and the maximum constriction is not high are antagonists. Contrary to this, compounds in which the affinity for the endothelin receptor is high and the maximum constriction is high are agonists.

[2] = system: porcine coronary artery; assay type: cell-based; conditions: for Constrictor activity (Relative potency): ET-1 = 100; for Maximum Constriction (% 60 mM KCl): normalized to constriction response to 60 mM KCl
Procedure: Each of helical strips 2 mm×15 mm prepared from the coronary right ramus circumflexus from which the adventitial connective tissues and the endothelial cells were removed was set to each of 4 ml organ baths. Its tension was detected by a force displacement transducer UL-10GR (Minebea), and recorded by a polygraph (NEC Sanei). The organ baths were maintained at 37° C., and filled with a Krebs-Henseleit solution (composition:118 mM NaCl, 4.7 mM KCl, 2.5 mM CaCl2, 1.2 mM KH2 PO4, 25.0 mM NaHCO3, 1.2 mM MgSO4, 10.0 mM glucose) gassed with 95% O2 and 5% CO2.
A tension of 1.25 to 1.5 g was applied to each of the strips, followed by equilibration for 1.5 hours. 60 mM KCl was repeatedly applied thereto at intervals of 30 minutes until the constriction response became constant. After additional equilibration for 1.5 hours, a sample for assay was given. The constriction of the strips was normalized by the constriction response of the individual strips to 60 mM KCl and statistically processed.
(2) As to the antagonist property or the agonist property of the peptide derivatives of present invention to endothelin, the affinity for an endothelin receptor and the constrictor activity to porcine coronary smooth muscles (according to the method described in (1) described above) were assayed. The affinity for the receptor was assayed by the following method.

Receptor binding activity (Relative potency) [1]	SMILES	Constrictor activity (Relative potency) [2]	Maximum Constriction (% 60 mM KCl) [2] [% 60 mM KCl]
9.1	CC[C@H](C)[C@H](NC(=O)[C@H](C)NC(=O)[C@H](CC(C)C)NC(=O)[C@H](Cc1c[nH]cn1)NC(=O)[C@@H]1CSSC[C@H](N)C(=O)N[C@@H](CO)C(=O)N[C@H]2CSSC[C@H](NC(=O)[C@H](CCC(=O)O)NC(=O)[C@H](CCCCN)NC(=O)[C@H](CC(=O)O)NC(=O)[C@H](CCSC)NC(=O)[C@H](CC(C)C)NC(=O)[C@H](CO)NC(=O)[C@H](CO)NC2=O)C(=O)N[C@@H](C(C)C)C(=O)N[C@@H](Cc2ccc(O)cc2)C(=O)N[C@@H](Cc2ccccc2)C(=O)N1)C(=O)N[C@H](C(=O)N[C@@H](Cc1c[nH]c2ccccc12)C(=O)O)[C@@H](C)CC [Example 25, [Ala^18]-ET-1] (H-CSCSSLMDKECVYFCHLAIIW-OH; disulfide 1-15, 3-11)	7.8	62
2.4	CC[C@H](C)[C@H](NC(=O)[C@H](CC(C)C)NC(=O)[C@H](CC(C)C)NC(=O)[C@H](Cc1c[nH]cn1)NC(=O)[C@@H]1CSSC[C@H](N)C(=O)N[C@@H](CO)C(=O)N[C@H]2CSSC[C@H](NC(=O)[C@H](CCC(=O)O)NC(=O)[C@H](CCCCN)NC(=O)[C@H](CC(=O)O)NC(=O)[C@H](CCSC)NC(=O)[C@H](CC(C)C)NC(=O)[C@H](CO)NC(=O)[C@H](CO)NC2=O)C(=O)N[C@@H](C(C)C)C(=O)N[C@@H](Cc2ccc(O)cc2)C(=O)N[C@@H](Cc2ccccc2)C(=O)N1)C(=O)N[C@H](C(=O)N[C@@H](Cc1c[nH]c2ccccc12)C(=O)O)[C@@H](C)CC [Example 26, [Leu^18]-ET-1] (H-CSCSSLMDKECVYFCHLLIIW-OH; disulfide 1-15, 3-11)	< 0.1	0
5.0	CC[C@H](NC(=O)[C@H](CC(C)C)NC(=O)[C@H](Cc1c[nH]cn1)NC(=O)[C@@H]1CSSC[C@H](N)C(=O)N[C@@H](CO)C(=O)N[C@H]2CSSC[C@H](NC(=O)[C@H](CCC(=O)O)NC(=O)[C@H](CCCCN)NC(=O)[C@H](CC(=O)O)NC(=O)[C@H](CCSC)NC(=O)[C@H](CC(C)C)NC(=O)[C@H](CO)NC(=O)[C@H](CO)NC2=O)C(=O)N[C@@H](C(C)C)C(=O)N[C@@H](Cc2ccc(O)cc2)C(=O)N[C@@H](Cc2ccccc2)C(=O)N1)C(=O)N[C@H](C(=O)N[C@H](C(=O)N[C@@H](Cc1c[nH]c2ccccc12)C(=O)O)[C@@H](C)CC)[C@@H](C)CC [Example 30, [Abu^18]-ET-1] (H-CSCSSLMDKECVYFCHL[Abu]IIW-OH; disulfide 1-15, 3-11)	< 0.1	6
2.4	CCC[C@H](NC(=O)[C@H](CC(C)C)NC(=O)[C@H](Cc1c[nH]cn1)NC(=O)[C@@H]1CSSC[C@H](N)C(=O)N[C@@H](CO)C(=O)N[C@H]2CSSC[C@H](NC(=O)[C@H](CCC(=O)O)NC(=O)[C@H](CCCCN)NC(=O)[C@H](CC(=O)O)NC(=O)[C@H](CCSC)NC(=O)[C@H](CC(C)C)NC(=O)[C@H](CO)NC(=O)[C@H](CO)NC2=O)C(=O)N[C@@H](C(C)C)C(=O)N[C@@H](Cc2ccc(O)cc2)C(=O)N[C@@H](Cc2ccccc2)C(=O)N1)C(=O)N[C@H](C(=O)N[C@H](C(=O)N[C@@H](Cc1c[nH]c2ccccc12)C(=O)O)[C@@H](C)CC)[C@@H](C)CC [Example 31, [Nva^18]-ET-1] (H-CSCSSLMDKECVYFCHL[Nva]IIW-OH; disulfide 1-15, 3-11)	< 0.1	2

More lines, now with the values behind:

SMILES	Receptor binding activity (Relative potency) [1]	Constrictor activity (Relative potency) [2]	Maximum Constriction (% 60 mM KCl) [2] [% 60 mM KCl]
CC[C@H](C)[C@H](NC(=O)[C@H](Cc1ccccc1)NC(=O)[C@H](CC(C)C)NC(=O)[C@H](Cc1c[nH]cn1)NC(=O)[C@@H]1CSSC[C@H](N)C(=O)N[C@@H](CO)C(=O)N[C@@H](C)C(=O)N[C@@H](CO)C(=O)N[C@@H](CO)C(=O)N[C@@H](CC(C)C)C(=O)N[C@@H](CCSC)C(=O)N[C@@H](CC(=O)O)C(=O)N[C@@H](CCCCN)C(=O)N[C@@H](CCC(=O)O)C(=O)N[C@@H](C)C(=O)N[C@@H](C(C)C)C(=O)N[C@@H](Cc2ccc(O)cc2)C(=O)N[C@@H](Cc2ccccc2)C(=O)N1)C(=O)N[C@H](C(=O)N[C@@H](Cc1c[nH]c2ccccc12)C(=O)O)[C@@H](C)CC [Example 23, [Ala^3,11, Phe^18]-ET-1] (H-CSASSLMDKEAVYFCHLFIIW-OH; disulfide 1-15)	1.27	< 0.1	8
CC[C@H](C)[C@H](NC(=O)[C@@H](NC(=O)[C@H](CC(C)C)NC(=O)[C@H](Cc1c[nH]cn1)NC(=O)[C@@H]1CSSC[C@H](N)C(=O)N[C@@H](CO)C(=O)N[C@H]2CSSC[C@H](NC(=O)[C@H](CCC(=O)O)NC(=O)[C@H](CCCCN)NC(=O)[C@H](CC(=O)O)NC(=O)[C@H](CCSC)NC(=O)[C@H](CC(C)C)NC(=O)[C@H](CO)NC(=O)[C@H](CO)NC2=O)C(=O)N[C@@H](C(C)C)C(=O)N[C@@H](Cc2ccc(O)cc2)C(=O)N[C@@H](Cc2ccccc2)C(=O)N1)C(C)C)C(=O)N[C@H](C(=O)N[C@@H](Cc1c[nH]c2ccccc12)C(=O)O)[C@@H](C)CC [Example 27, [Val^18]-ET-1] (H-CSCSSLMDKECVYFCHLVIIW-OH; disulfide 1-15, 3-11)	3.2	< 0.1	2
CC[C@H](C)[C@H](NC(=O)CNC(=O)[C@H](CC(C)C)NC(=O)[C@H](Cc1c[nH]cn1)NC(=O)[C@@H]1CSSC[C@H](N)C(=O)N[C@@H](CO)C(=O)N[C@H]2CSSC[C@H](NC(=O)[C@H](CCC(=O)O)NC(=O)[C@H](CCCCN)NC(=O)[C@H](CC(=O)O)NC(=O)[C@H](CCSC)NC(=O)[C@H](CC(C)C)NC(=O)[C@H](CO)NC(=O)[C@H](CO)NC2=O)C(=O)N[C@@H](C(C)C)C(=O)N[C@@H](Cc2ccc(O)cc2)C(=O)N[C@@H](Cc2ccccc2)C(=O)N1)C(=O)N[C@H](C(=O)N[C@@H](Cc1c[nH]c2ccccc12)C(=O)O)[C@@H](C)CC [Example 28, [Gly^18]-ET-1] (H-CSCSSLMDKECVYFCHLGIIW-OH; disulfide 1-15, 3-11)	39.8	43	99
CC[C@H](C)[C@H](NC(=O)[C@H](Cc1ccccc1)NC(=O)[C@H](CC(C)C)NC(=O)[C@H](Cc1c[nH]cn1)NC(=O)[C@@H]1CSSC[C@H](N)C(=O)N[C@@H](CO)C(=O)N[C@H]2CSSC[C@H](NC(=O)[C@H](CCC(=O)O)NC(=O)[C@H](CCCCN)NC(=O)[C@H](CC(=O)O)NC(=O)[C@H](CCSC)NC(=O)[C@H](CC(C)C)NC(=O)[C@H](CO)NC(=O)[C@H](CO)NC2=O)C(=O)N[C@@H](C(C)C)C(=O)N[C@@H](Cc2ccc(O)cc2)C(=O)N[C@@H](Cc2ccccc2)C(=O)N1)C(=O)N[C@H](C(=O)N[C@@H](Cc1c[nH]c2ccccc12)C(=O)O)[C@@H](C)CC [Example 33, [Phe^18]-ET-1] (H-CSCSSLMDKECVYFCHLFIIW-OH; disulfide 1-15, 3-11)	2.4	< 0.1	0
